Legend:
Experiment in all cases: Glasshouse herbicide test, pre- and post-emergence
Type in all cases: in vivo
[1] = test system: Echinochloa crus-galli (ECHCG); conditions: 250 g/h, evaluated after 13 days, five-point scale; for percentage damage caused to the plant, ECHCG POST: post-emergence; for percentage damage caused to the plant, ECHCG PRE: pre-emergence
Description: (§1) Seeds of a variety of test species are sown in standard soil in pots (Lolium perenne (LOLPE), Setaria faberi (SETFA), Alopecurus myosuroides (ALOMY), Echinochloa crus-galli (ECHCG), Avena fatua (AVEFA)). After cultivation for one day (pre-emergence) or after 8 days cultivation (post-emergence) under controlled conditions in a glasshouse (at 24/16° C., day/night; 14 hours light; 65% humidity), the plants are sprayed with an aqueous spray solution derived from the formulation of the technical active ingredient in acetone/water (50:50) solution containing 0.5% Tween 20 (polyoxyethelyene sorbitan monolaurate, CAS RN 9005-64-5). Compounds are applied at 250 g/h. The test plants are then grown in a glasshouse under controlled conditions in a glasshouse (at 24/16° C., day/night; 14 hours light; 65% humidity) and watered twice daily. After 13 days for pre and post-emergence, the test is evaluated for the percentage damage caused to the plant. The biological activities are shown in the following table on a five-point scale (5=80-100%; 4=60-79%; 3=40-59%; 2=20-39%; 1=0-19%).

Lolium perenne (LOLPE) = conditions: 250 g/h, evaluated after 13 days, five-point scale; for percentage damage caused to the plant, LOLPE POST: post-emergence; for percentage damage caused to the plant, LOLPE PRE: pre-emergence
Description: as §1

Setaria faberi (SETFA) = conditions: 250 g/h, evaluated after 13 days, five-point scale; for percentage damage caused to the plant, SETFA POST: post-emergence; for percentage damage caused to the plant, SETFA PRE: pre-emergence
Description: as §1

Avena fatua (AVEFA) = conditions: 250 g/h, evaluated after 13 days, five-point scale; for percentage damage caused to the plant, AVEFA POST: post-emergence; for percentage damage caused to the plant, AVEFA PRE: pre-emergence
Description: as §1

[2] = test system: Alopecurus myosuroides (ALOMY); conditions: 250 g/h, evaluated after 13 days, five-point scale; for percentage damage caused to the plant, ALOMY POST: post-emergence; for percentage damage caused to the plant, ALOMY PRE: pre-emergence
Description: as §1

SMILES | percentage damage caused to the plant, ECHCG POST [1] | percentage damage caused to the plant, ECHCG PRE [1] | percentage damage caused to the plant, LOLPE POST (Lolium perenne (LOLPE)) | percentage damage caused to the plant, LOLPE PRE (Lolium perenne (LOLPE)) | percentage damage caused to the plant, SETFA POST (Setaria faberi (SETFA)) | percentage damage caused to the plant, SETFA PRE (Setaria faberi (SETFA)) | percentage damage caused to the plant, AVEFA POST (Avena fatua (AVEFA)) | percentage damage caused to the plant, AVEFA PRE (Avena fatua (AVEFA)) | percentage damage caused to the plant, ALOMY POST [2] | percentage damage caused to the plant, ALOMY PRE [2]
CC#Cc1cc(C)c(C2C(=O)CC3(CCC(C(=O)NC(C)(C)C)CC3)CC2=O)c(C)c1 (centres unmarked) [Compound 1.013] | 5 (5=80-100%) | 5 (5=80-100%) | 5 (5=80-100%) | 5 (5=80-100%) | 5 (5=80-100%) | 5 (5=80-100%) | 4 (4=60-79%) | 1 (1=0-19%) | 5 (5=80-100%) | 3 (3=40-59%)
CC#Cc1cc(C)c(C2C(=O)CC3(CCC(C(=O)NC(C)(C#N)CC)CC3)CC2=O)c(C)c1 (centres unmarked) [Compound 1.014] | 5 (5=80-100%) | 5 (5=80-100%) | 5 (5=80-100%) | 5 (5=80-100%) | 5 (5=80-100%) | 5 (5=80-100%) | 5 (5=80-100%) | 2 (2=20-39%) | 5 (5=80-100%) | 3 (3=40-59%)
CC#Cc1cc(C)c(C2C(=O)CC3(CCC(C(=O)NC)CC3)CC2=O)c(OC)c1 (centres unmarked) [Compound 1.016] | 5 (5=80-100%) | 5 (5=80-100%) | 5 (5=80-100%) | 5 (5=80-100%) | 5 (5=80-100%) | 5 (5=80-100%) | 5 (5=80-100%) | 5 (5=80-100%) | 5 (5=80-100%) | 5 (5=80-100%)
CC#Cc1cc(C)c(C2C(=O)CC3(CC2=O)CC(C(=O)NC)C3)c(C)c1 (centres unmarked) [Compound 1.017] | 5 (5=80-100%) | 5 (5=80-100%) | 5 (5=80-100%) | 5 (5=80-100%) | 5 (5=80-100%) | 5 (5=80-100%) | 5 (5=80-100%) | 5 (5=80-100%) | 5 (5=80-100%) | 5 (5=80-100%)
CC#Cc1cc(C)c(C2C(=O)CC3(CCC(C(=O)NC)C3)CC2=O)c(C)c1 (centres unmarked) [Compound 1.018] | 5 (5=80-100%) | 5 (5=80-100%) | 5 (5=80-100%) | 5 (5=80-100%) | 5 (5=80-100%) | 5 (5=80-100%) | 5 (5=80-100%) | 5 (5=80-100%) | 5 (5=80-100%) | 5 (5=80-100%)
CNC(=O)C1CCC2(CC1)CC(=O)C(c1c(C)cc(-c3ccc(C#N)cn3)cc1C)C(=O)C2 (centres unmarked) [Compound 1.020] | 5 (5=80-100%) | 5 (5=80-100%) | 5 (5=80-100%) | 5 (5=80-100%) | 5 (5=80-100%) | 5 (5=80-100%) | 5 (5=80-100%) | 5 (5=80-100%) | 5 (5=80-100%) | 5 (5=80-100%)
Cc1cc(-c2ccc(C#N)cn2)cc(C)c1C1C(=O)CC2(CCC(C(=O)N(C)C)CC2)CC1=O (centres unmarked) [Compound 1.021] | 5 (5=80-100%) | 5 (5=80-100%) | 5 (5=80-100%) | 4 (4=60-79%) | 5 (5=80-100%) | 4 (4=60-79%) | 5 (5=80-100%) | 2 (2=20-39%) | 5 (5=80-100%) | 4 (4=60-79%)
CNC(=O)C1CCC2(CC1)CC(=O)C(c1c(C)cc(-c3ccc(Cl)cn3)cc1C)C(=O)C2 (centres unmarked) [Compound 1.022] | 5 (5=80-100%) | 5 (5=80-100%) | 5 (5=80-100%) | 5 (5=80-100%) | 5 (5=80-100%) | 5 (5=80-100%) | 5 (5=80-100%) | 5 (5=80-100%) | 5 (5=80-100%) | 5 (5=80-100%)
CNC(=O)C1CCC2(CC1)CC(=O)C(c1c(C)cc(-c3ncc(F)cc3F)cc1C)C(=O)C2 (centres unmarked) [Compound 1.023] | 5 (5=80-100%) | 5 (5=80-100%) | 5 (5=80-100%) | 5 (5=80-100%) | 5 (5=80-100%) | 5 (5=80-100%) | 5 (5=80-100%) | 5 (5=80-100%) | 5 (5=80-100%) | 5 (5=80-100%)
CNC(=O)C1CCC2(CC1)CC(=O)C(c1c(C)cc(-c3ccc(F)cn3)cc1C)C(=O)C2 (centres unmarked) [Compound 1.024] | 5 (5=80-100%) | 5 (5=80-100%) | 5 (5=80-100%) | 5 (5=80-100%) | 5 (5=80-100%) | 5 (5=80-100%) | 5 (5=80-100%) | 5 (5=80-100%) | 5 (5=80-100%) | 5 (5=80-100%)
CNC(=O)C1CCC2(CC1)CC(=O)C(c1c(C)cc(-c3ccc(F)cc3)cc1C)C(=O)C2 (centres unmarked) [Compound 1.025] | 5 (5=80-100%) | 5 (5=80-100%) | 5 (5=80-100%) | 5 (5=80-100%) | 5 (5=80-100%) | 5 (5=80-100%) | 5 (5=80-100%) | 5 (5=80-100%) | 5 (5=80-100%) | 5 (5=80-100%)

Reference: patent publication US12319640B2, “Cyclic diones as herbicidal compounds” (SYNGENTA CROP PROTECTION AG, priority 2019, dated 2025)
